Broadly, the pIC50 is the negative decadic logarithm of the IC50, by convention in mol/L. Low values mean a large IC50, high ones a small IC50.

Results on 5 compounds are retold here after US5880156A, “Substituted benzoylguanidines, process for their preparation, their use as a medicament or diagnostic and medicament containing them” (priority 1993, dated 1999).

Data set [1] concerns the target T1, Na^+ /H^+ exchanger from rabbit erythrocytes (Oryctolagus cuniculus, UniProt P23791).
T1 construct: determine the Na^+ influx into the erythrocytes via Na^+ /H^+ exchange by flame photometry; endogenous in cells; host or cells: intact erythrocytes (whole blood samples) of cholesterol-fed White New Zealand rabbits
Nature of the data set: Inhibition of the Na^+ /H^+ exchanger from rabbit erythrocytes (Na^+ influx by flame photometry). The note with it: pH 7.4, 37° C., cholesterol-fed rabbits. Type of data set: cell-based, rabbit (White New Zealand). Here is the method: White New Zealand rabbits (Ivanovas) received a standard diet containing 2% cholesterol for six weeks in order to activate Na^+ /H^+ exchange and thus to be able to determine the Na^+ influx into the erythrocytes via Na^+ /H^+ exchange by flame photometry. The blood was taken from the auricular arteries and rendered uncoagulable by means of 25 IU of potassium heparin. A part of each sample was used for the duplicate determination of the hematocrit by centrifugation. Aliquots of 100 μl in each case were used to measure the Na^+ starting content of the erythrocytes.
In order to determine the amiloride-sensitive sodium influx, 100 μl of each blood sample were incubated at pH 7.4 and 37° C. in 5 ml in each case of a hyperosmolar salt-sucrose medium (mmol/l: 140 NaCl, 3 KCl, 150 sucrose, 0.1 ouabain, 20 trishydroxymethylaminomethane). The erythrocytes were then washed three times with ice-cold MgCl2 --ouabain solution (mmol/l: […] MgCl2, 0.1 ouabain) and hemolyzed in 2.0 ml of distilled water. The intracellular sodium content was determined by flame photometry.
The net Na^+ influx was calculated from the difference between sodium starting values and the sodium content of the erythrocytes after incubation. The amilorideinhibitable sodium influx ensued from the difference in the sodium content of the erythrocytes after incubation with and without amiloride 3×10^-4 mol/l. The sodium influx was also determined in this manner in the case of the compounds according to the invention.

A further data set concerns cardiac arrhythmias. To be noted: in vivo; cited from earlier work.

SMILES strings stand for the structures. pIC50: −log10 of the molar value. Where a name gives a salt, the structure may show the parent alone.

T1 sequence (P23791 whole entry): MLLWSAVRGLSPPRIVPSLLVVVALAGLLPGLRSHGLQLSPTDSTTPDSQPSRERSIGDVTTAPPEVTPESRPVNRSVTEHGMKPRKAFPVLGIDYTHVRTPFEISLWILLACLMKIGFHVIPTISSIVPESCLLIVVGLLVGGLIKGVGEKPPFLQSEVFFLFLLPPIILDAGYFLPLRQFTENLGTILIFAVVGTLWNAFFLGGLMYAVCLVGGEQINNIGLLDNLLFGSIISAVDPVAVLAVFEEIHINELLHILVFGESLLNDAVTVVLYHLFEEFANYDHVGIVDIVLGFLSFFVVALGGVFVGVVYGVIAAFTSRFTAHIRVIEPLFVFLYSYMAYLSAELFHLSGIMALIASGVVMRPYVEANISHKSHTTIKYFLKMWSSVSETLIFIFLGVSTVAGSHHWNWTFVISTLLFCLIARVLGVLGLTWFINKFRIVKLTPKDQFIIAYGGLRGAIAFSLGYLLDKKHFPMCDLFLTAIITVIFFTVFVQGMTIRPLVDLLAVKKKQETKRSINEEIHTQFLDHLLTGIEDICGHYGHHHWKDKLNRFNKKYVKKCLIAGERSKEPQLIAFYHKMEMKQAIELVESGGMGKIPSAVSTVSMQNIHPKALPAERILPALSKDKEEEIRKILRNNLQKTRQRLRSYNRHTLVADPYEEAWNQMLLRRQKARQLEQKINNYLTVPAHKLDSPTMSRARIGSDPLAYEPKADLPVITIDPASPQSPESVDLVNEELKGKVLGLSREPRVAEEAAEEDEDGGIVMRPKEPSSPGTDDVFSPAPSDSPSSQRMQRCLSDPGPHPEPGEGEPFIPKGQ

`CC(O)c1ccc(Oc2ccc(C(=O)N=C(N)N)cc2S(C)(=O)=O)cc1` (racemic) [Example 2, hydrochloride] had a pIC50 in data set [1] of 6.40.
Still for that read-out and setting: the figure for `CC(=O)c1ccc(Oc2ccc(C(=O)N=C(N)N)cc2S(C)(=O)=O)cc1` [Example 1, 4-(4-Acetylphenoxy)-3-methylsulfonylbenzoylguanidine] is 6.40; for `C[C@@H](O)[C@H](O)c1ccc(Oc2ccc(C(=O)N=C(N)N)cc2S(C)(=O)=O)cc1` [Example 3, 4-[4-(1(R),2(R) -Dihydroxyprop-1-yl)phenoxy]-3-methylsulfonylbenzoylguanidine] it is 6.30 to 6.52; for `C[C@H](O)[C@@H](O)c1ccc(Oc2ccc(C(=O)N=C(N)N)cc2S(C)(=O)=O)cc1` [Example 4, 4-[4-(1(S),2(S)-Dihydroxyprop-1-yl)phenoxy]-3-methylsulfonylbenzoylguanidin] it is 6.30 to 7.00.
For the compound `N=C(N)NC(=O)c1nc(Cl)c(N)nc1N` [amiloride, Amiloride], the “side effects accompanying antiarrhythmic effect” value with cardiac arrhythmias was “hypotensive and saluretic action”.
